How the values were obtained:
human FPR2 = target: T1, human FPR2 (Homo sapiens, UniProt P25090); experiment: FPR2 cyclic adenosine monophosphate (cAMP) assay; format: cell-based; settings: CHO cells overexpressing human FPR2; forskolin 5 μM; inhibition of cAMP production; HTRF; read-out: hFPR2 cAMP2 EC50
T1 sequence (P25090 1-351): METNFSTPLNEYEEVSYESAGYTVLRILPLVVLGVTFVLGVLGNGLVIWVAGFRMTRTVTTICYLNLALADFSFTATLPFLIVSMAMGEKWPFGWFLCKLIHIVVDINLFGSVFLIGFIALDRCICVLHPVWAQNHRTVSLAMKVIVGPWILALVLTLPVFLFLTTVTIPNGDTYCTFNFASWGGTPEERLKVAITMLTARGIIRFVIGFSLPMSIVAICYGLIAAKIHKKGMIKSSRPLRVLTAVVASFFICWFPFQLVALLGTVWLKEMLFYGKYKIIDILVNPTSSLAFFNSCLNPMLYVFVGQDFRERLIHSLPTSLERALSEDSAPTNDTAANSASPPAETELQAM
Procedure, shortened: (§1)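 Gi-coupled activity is read as suppression of forskolin-stimulated cAMP (10 μM final for FPR1, 5 μM final for FPR2; IBMX 200 μM final) in recombinant CHO cells, 30 min incubation at rt, HTRF detection.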

human FPR1 = target: T2, human FPR1 (Homo sapiens, UniProt P21462); experiment: FPR1 cyclic adenosine monophosphate (cAMP) assay; format: cell-based; settings: CHO cells overexpressing human FPR1; forskolin 10 μM; inhibition of cAMP production; HTRF; read-out: hFPR1 cAMP2 EC50
T2 sequence (P21462 1-350): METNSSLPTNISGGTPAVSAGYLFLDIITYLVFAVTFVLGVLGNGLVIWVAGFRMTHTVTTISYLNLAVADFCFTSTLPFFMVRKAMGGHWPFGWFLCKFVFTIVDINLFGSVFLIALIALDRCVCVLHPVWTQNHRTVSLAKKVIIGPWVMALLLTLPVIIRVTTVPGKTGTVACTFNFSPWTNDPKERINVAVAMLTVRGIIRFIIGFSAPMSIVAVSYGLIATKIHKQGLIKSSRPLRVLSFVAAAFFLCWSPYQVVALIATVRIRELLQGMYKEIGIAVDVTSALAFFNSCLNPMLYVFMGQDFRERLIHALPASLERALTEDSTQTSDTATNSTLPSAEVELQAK
Procedure, shortened: as §1

EC50 (human FPR2) [nM] | EC50 (human FPR1) [nM] | SMILES
7 | > 10000 | COc1cc(C2CCN(CCO)CC2)nc(-n2c(=O)c(NC(=O)c3ccc(OC(F)F)cc3)c(-c3c(F)cc(OC)cc3F)n2C)c1 [Example 368, N-(5-(2,6-Difluoro-4-methoxyphenyl)-2-(6-(1-(2-hydroxyethyl)piperidin-4-yl)-4-methoxypyridin-2-yl)-1-methyl-3-oxo-2,3-dihydro-1H-pyrazol-4-yl)-4-(difluoromethoxy)benzamide]
5 | > 10000 | COc1cc(F)c(-c2c(NC(=O)c3ccc(OC(F)F)cc3)c(=O)n(-c3nc(C(F)(F)F)ccc3OCC3CCOC3)n2C)c(F)c1 (stereo not drawn) [Example 369, N-(5-(2,6-Difluoro-4-methoxyphenyl)-1-methyl-3-oxo-2-(3-((tetrahydrofuran-3-yl)methoxy)-6-(trifluoromethyl)pyridin-2-yl)-2,3-dihydro-1H-pyrazol-4-yl)-4-(difluoromethoxy)benzamide]
5 | > 10000 | COc1cc(F)c(-c2c(NC(=O)c3ccc(OC(F)F)cc3)c(=O)n(-c3nc(C(F)(F)F)ccc3OCC3CCOC3)n2C)c(F)c1 (stereo not drawn) [Example 370, N-(5-(2,6-Difluoro-4-methoxyphenyl)-1-methyl-3-oxo-2-(3-((tetrahydrofuran-3-yl)methoxy)-6-(trifluoromethyl)pyridin-2-yl)-2,3-dihydro-1H-pyrazol-4-yl)-4-(difluoromethoxy)benzamide]
6 | 240 | COc1cc(F)c(-c2c(NC(=O)c3ccc(OC(F)F)cc3)c(=O)n(-c3nc(C(F)(F)F)ccc3OC)n2C)c(F)c1 [Example 371, N-(5-(2,6-Difluoro-4-methoxyphenyl)-2-(3-methoxy-6-(trifluoromethyl)pyridin-2-yl)-1-methyl-3-oxo-2,3-dihydro-1H-pyrazol-4-yl)-4-(difluoromethoxy)benzamide]
6 | > 10000 | COc1cc(F)c(-c2c(NC(=O)c3ccc(OC(F)F)cc3)c(=O)n(-c3nc(C(F)(F)F)ccc3OCCO)n2C)c(F)c1 [Example 372, N-(5-(2,6-Difluoro-4-methoxyphenyl)-2-(3-(2-hydroxyethoxy)-6-(trifluoromethyl)pyridin-2-yl)-1-methyl-3-oxo-2,3-dihydro-1H-pyrazol-4-yl)-4-(difluoromethoxy)benzamide]
16 | > 10000 | COc1cc(F)c(-c2c(NC(=O)c3ccc(OC(F)F)cc3)c(=O)n(-c3nc(C(F)(F)F)ccc3OC[C@H](C)O)n2C)c(F)c1 [Example 373, (S)-N-(5-(2,6-Difluoro-4-methoxyphenyl)-2-(3-(2-hydroxypropoxy)-6-(trifluoromethyl)pyridin-2-yl)-1-methyl-3-oxo-2,3-dihydro-1H-pyrazol-4-yl)-4-(difluoromethoxy)benzamide]
22 | 320 | COc1cc(F)c(-c2c(NC(=O)c3ccc(OC(F)F)cc3)c(=O)n(-c3nc(C(F)(F)F)ccc3NCCO)n2C)c(F)c1 [Example 374, N-(5-(2,6-Difluoro-4-methoxyphenyl)-2-(3-((2-hydroxyethyl)amino)-6-(trifluoromethyl)pyridin-2-yl)-1-methyl-3-oxo-2,3-dihydro-1H-pyrazol-4-yl)-4-(difluoromethoxy)benzamide]
3 | > 10000 | COc1cc(F)c(-c2c(NC(=O)c3ccc(OC(F)F)cc3)c(=O)n(-c3nc(C(F)(F)F)ccc3N(C)CCO)n2C)c(F)c1 [Example 375, N-(5-(2,6-Difluoro-4-methoxyphenyl)-2-(3-((2-hydroxyethyl)(methyl)amino)-6-(trifluoromethyl)pyridin-2-yl)-1-methyl-3-oxo-2,3-dihydro-1H-pyrazol-4-yl)-4-(difluoromethoxy)benzamide]
5 | > 10000 | COc1cc(C)nc(-n2c(=O)c(NC(=O)c3ccc(OC(F)F)cc3)c(-c3c(F)cc(OC)cc3F)n2C)c1 [Example 376, N-(5-(2,6-Difluoro-4-methoxyphenyl)-2-(4-methoxy-6-methylpyridin-2-yl)-1-methyl-3-oxo-2,3-dihydro-1H-pyrazol-4-yl)-4-(difluoromethoxy)benzamide]

Source: US12577206B2 (BRISTOL-MYERS SQUIBB COMPANY, priority 2020, dated 2026)
